Test results: patent US20100159496A1, “EVALUATION METHOD FOR PHOTOSYNTHESIS SAMPLE, EVALUATION SYSTEM FOR PHOTOSYNTHESIS SAMPLE, AND EVALUATION PROGRAM FOR PHOTOSYNTHESIS SAMPLE” (HAMAMATSU PHOTONICS K.K., priority 2006, published 2010)

Legend:
[1] = system: Pseudokircheneriella subcapitata; experiment: Delayed luminescence of P. subcapitata exposed to simazine, fitted by Formula (1); type: cell-based; set-up: key to Computed value E: E computed by Formula (2) from fitted coefficients ai, bi, ci; settings: for luminescence amount of delayed luminescence, exposed vs not exposed: 15 minutes after exposure (FIG. 14); for Fitting formula value a1 / Fitting formula value a2 / Fitting formula value a3 / Fitting formula value b1 / Fitting formula value b2 / Fitting formula value b3 / Fitting formula value c1 / Fitting formula value c2 / Fitting formula value c3: 15 minutes after exposure; for Computed value E: Formula (2) from coefficients of Table 2; for Area value (quadrature by parts): third function f3(t), t=0 to 90, Δt 0.1
Description: In the present example, the measurement of delayed luminescence was carried out as follows. 2.5 mL of a P. subcapitata cell suspension, adjusted to have an absorbance at 660 nm of 0.2 in a general, 10×10 mm spectrometric cell, was exposed to simazine of any of various concentrations and left to stand for 15 minutes under a white fluorescent lamp of a light amount of 50 μmol·m−2·s−1. Thereafter, inside the measuring device 10, a red light (660 nm) of approximately 300 μmol·m−2·s−1 was illuminated for 10 seconds from the light source 18 as the excitation light for making delayed luminescence be emitted and then the delayed luminescence emitted after extinguishing of the excitation light was recorded for 50 seconds at 0.1 second intervals.
In the present example, the above-described Formula (1) was used for fitting. As examples for description of the fitting results, the measurement result for the “Not exposed” case is shown in FIG. 15A and a graph of the results of fitting to the measurement data are shown in FIG. 15B. In FIG. 15B, f1(t), f2(t), and f3(t) are respectively the first function, the second function, and the third function in Formula (1). From FIG. 15, it can be understood that the delayed luminescence measurement data can be fitted by a plurality of hill-shaped function.
By the fitting, the function coefficients, ai, bi, and ci (i=1, 2, 3) are determined.
As another example of the evaluating step, a case of evaluating by an evaluation value computed based on a computation formula shall be described. As the evaluation value, an evaluation value E is computed from the determined coefficient values ai, bi, and ci (i=1, 2, 3) and based on Formula (2) described above. Here, the constants mj (j=1 to 9) are set, for example, so that m1=1/a3, m2=1, m3=1, m4=1/a2, m5=1/b2, m6=1/c2, m7=1, m8=1/a1, m9=1/c1. As the constants mj, those that are appropriate according to the measurement conditions and algae species can be set. If instead of using all of the coefficient values, only a portion is to be used as described above, a reciprocal of a coefficient value, such as 1/a3, is set to the corresponding mj (j=1 to 9) for each coefficient value to be ignored.
As another example of the evaluating step, a case of evaluating by an area value computed based on the coefficient values of a function shall be described. As mentioned above, the area value is the value of the area of a region surrounded by the curve indicating the function value in the function graph and the time axis line positioned below the curve indicating the function value. The area value of a function is deeply related to the luminescence amount of the photon component expressed by the function. In the present example, based on the coefficient values obtained from the results of exposing simazine to P. subcapitata shown in Table 2, area values were determined for the third function f3(t) in Formula (1) in a range of t=0 to 90 by quadrature by parts with at interval Δt being set equal to 0.1.

[2] = system: Pseudokircheneriella subcapitata; experiment: Algae growth inhibition, area under growth curve, P. subcapitata; type: cell-based; settings: 72 hours after exposure, various simazine concentrations (FIG. 13)
Description: In the present embodiment, the area under the growth curve is the area under the growth curve obtained by culturing 6 mL of an P. subcapitata cell suspension, adjusted to have an absorbance at 750 nm of 0.01, under a white fluorescent lamp (50 μmol·m−2·s−1) for 72 hours after chemical substance exposure and measuring, every 24 hours, the cell density as the absorbance at 750 nm.

[3] = simazine exposure concentration 5 μg/L
[4] = simazine exposure concentration 25 μg/L
[5] = simazine exposure concentration 50 μg/L
[6] = simazine exposure concentration 100 μg/L

CCNc1nc(Cl)nc(NCC)n1 [Simazine, simazine]
variation of evaluation value c3 with simazine exposure concentration ([1]; P. subcapitata (FIG. 16)): decreases in accordance with the simazine exposure concentration
variation of computed value E with simazine exposure concentration ([1]; P. subcapitata (FIG. 17)): decreases in accordance with the simazine exposure concentration
variation of area value with simazine exposure concentration ([1]; P. subcapitata (FIG. 18)): decreases in accordance with the simazine exposure concentration
luminescence amount of delayed luminescence, exposed vs not exposed ([1]; early time period (near 0 seconds) of time after excitation): increases
luminescence amount of delayed luminescence, exposed vs not exposed ([1]; later time period (5 seconds onward) after excitation): decreases
Fitting formula value a1 [1, 3]: 0.05
Fitting formula value a2 [1, 3]: 0.0037
Fitting formula value a3 [1, 3]: 0.0005
Fitting formula value b1 [1, 3]: −0.5
Fitting formula value b2 [1, 3]: −0.5
Fitting formula value b3 [1, 3]: 6
Fitting formula value c1 [1, 3]: 5.2
Fitting formula value c2 [1, 3]: 4.15
Fitting formula value c3 [1, 3]: 3
Computed value E [1, 3]: 360
Area value (quadrature by parts) [1, 3]: 24112.1
Fitting formula value a1 [1, 4]: 0.05
Fitting formula value a2 [1, 4]: 0.0035
Fitting formula value a3 [1, 4]: 0.0004
Fitting formula value b1 [1, 4]: −0.5
Fitting formula value b2 [1, 4]: −0.5
Fitting formula value b3 [1, 4]: 5
Fitting formula value c1 [1, 4]: 5.2
Fitting formula value c2 [1, 4]: 4.1
Fitting formula value c3 [1, 4]: 2.9
Computed value E [1, 4]: 290
Area value (quadrature by parts) [1, 4]: 19665.7
Fitting formula value a1 [1, 5]: 0.08
Fitting formula value a2 [1, 5]: 0.0044
Fitting formula value a3 [1, 5]: 0.0005
Fitting formula value b1 [1, 5]: −0.5
Fitting formula value b2 [1, 5]: −0.5
Fitting formula value b3 [1, 5]: 3
Fitting formula value c1 [1, 5]: 5.4
Fitting formula value c2 [1, 5]: 4.1
Fitting formula value c3 [1, 5]: 2.9
Computed value E [1, 5]: 108.75
Area value (quadrature by parts) [1, 5]: 16520.1
Fitting formula value a1 [1, 6]: 0.1
Fitting formula value a2 [1, 6]: 0.005
Fitting formula value a3 [1, 6]: 0.005
Fitting formula value b1 [1, 6]: −0.5
Fitting formula value b2 [1, 6]: −0.5
Fitting formula value b3 [1, 6]: 3
Fitting formula value c1 [1, 6]: 5.6
Fitting formula value c2 [1, 6]: 4.1
Fitting formula value c3 [1, 6]: 2.7
Computed value E [1, 6]: 81
Area value (quadrature by parts) [1, 6]: 4435.7
cell growth (area under the growth curve) [2]: inhibited according to the exposure concentration of simazine
